Measured values taken from patent US10526318B2, “Oral cannabinoid receptor modulator formulations” (THE CLEVELAND CLINIC FOUNDATION, priority 2018, dated 2020).

What was measured:
[1] = test system: male beagle dogs; details: intravenous, 5 mg/mL in 20% HPβCD, Dog1001 and Dog1002
Protocol: The mixture was vortexed then stirred at room temperature for 93 minutes forming a clear yellow solution at a concentration of 5 mg/mL for intravenous dosing. The intravenous dose solution was sterile-filtered using a Millex GV PVDF 0.22 μm filter (Millipore) prior to dosing.
Using clean technique, an aliquot of the 5 mg/mL Group 1 formulation (2.8 mL) was combined with 20% HPβCD (4.2 mL), and vortexed to form a clear yellow solution at a concentration of 2 mg/mL for intravenous dosing.
A total of fifteen male beagle dogs (plus one spare animal) were selected from the Test Facility's colony of non-naïve animals. The animals were assigned to the study based on acceptable health as determined by a Test Facility veterinarian following a pre-study health status check. The pre-study health status check included a physical exam, serum chemistry and hematology evaluations. The animals were placed into five groups of three animals per group. All animals were fasted overnight prior to dose administration.
Each animal in Group 1 received the prepared test article as a 30-60 second intravenous injection by way of a temporary percutaneous catheter placed in a peripheral vein. Immediately after each intravenous dose, the catheter was flushed with 3 mL of saline prior to removal. […]

[2] = Microcentrifuge dissolution test, second round of SDD testing; type: physicochemical; details: 400 μgA/mL in 0.5 wt % SIF in PBS, pH 6.5, 37° C.
Protocol: In the second round of testing, experiments were carried out using crystalline API (active pharmaceutical ingredient; MDA7), 10% MDA7 in HPMCAS-M SDD, 25% MDA7 in HPMCAS-M SDD, 25% MDA7 in HPMCAS-L SDD, and 25% MDA7:PVP VA64 SDD. The test conditions were 400 μgA/mL in 0.5 wt % SIF in PBS, pH 6.5, 37° C.

[3] = MDA7 GB/IB non-sink microcentrifuge dissolution test; type: physicochemical
Protocol: In the first round of testing, experiments were carried out using crystalline API, 25% MDA7: HPMCAS-H, 25% MDA7: Eudragit L100, 25/65/10%:HPMCAS-M:TPGS, 25/65/10% MDA7:PVP VA64:TPGS, and 40% MDA7: HPMCAS-M. The results of these experiments are shown in FIG. 1, and Table 1 below.

[4] = test system: mice; details: cited from earlier work

For `CC1(Cc2ccccc2)COc2cc(C(=O)N3CCCCC3)ccc21` (centres unmarked) [Crystalline API, 3-benzyl-3-methyl-2,3-dihydrobenzofuran-6-carboxylic acid-piperidine amide], the “clinical effects observed following dosing” value [1] was “adverse clinical effects”, the AUC90 [2] was 2,010 min*μg/mL and the C90 [2] was 24 µg/mL. The C1200 [2] was 28 µg/mL, the Cmax90 [2] was 27000 ng/mL and the Ultra90 [2] was 20 µg/mL. For the same molecule, the Ultra1200 [2] was 24 µg/mL, the AUC90 [3] was 2,360 min*μg/mL and the C90 [3] was 31 µg/mL. For the same molecule, the C1200 [3] was 31 µg/mL, the Cmax90 [3] was 31000 ng/mL and the Ultra90 [3] was 31 µg/mL. It also gave a Ultra1200 [3] of 31 µg/mL.
For `Cc1c(C(=O)NN2CCCCC2)nn(-c2ccc(Cl)cc2Cl)c1-c1ccc(Cl)cc1` [SR141716A], the “effect on food intake” value [4] is given as “reduces food intake”.
